13 compounds from patent US12662479B2 (Foghorn Therapeutics Inc., priority 2020, dated 2026) can be followed below.

Test [1] has as its target T1, HiBit-BRG1 fusion protein (Homo sapiens, UniProt P51532).
T1 construct: expressed in transfected cells
The experiment in a line: HiBiT-BRG1 cell-based degradation assay (Nano-Glo HiBiT Lytic Detection, 24 h). The note with it: HeLa cells expressing HiBit-BRG1 and LgBit; for DC50: read-out: BRG1 HiBit Degradation IC50; for Dmax: HeLa, top dose 30 μM, read-out: BRG1 HiBit Degradation Maximum measured. The essentials: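 Degradation is scaled from DMSO-treated cells (0%) to cells given 2 μM of a known BRM/BRG1 degrader (100%). HeLa cells stably carrying HiBiT-BRG1 plus LgBiT (5000/well) were lysed with Nano-Glo HiBiT detection reagent, shaken 10 min at RT, and luminescence read.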
On the technique in general: The HiBiT peptide binds its large partner to form an active luciferase.

Test [2] addresses T2, HiBit-BRM fusion protein (Homo sapiens, UniProt P51531).
T2 construct: expressed in transfected cells
As to the kind of experiment: HiBiT-BRM cell-based degradation assay (Nano-Glo HiBiT Lytic Detection, 24 h). The note with it: HeLa cells expressing HiBiT-BRM; for DC50: read-out: BRM HiBit Degradation IC50; for BRM HiBit Degradation Maximum measured: top dose 30 μM. The essentials: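 Stable HiBiT-BRM HeLa line; 24 h compound exposure, top final 30 μM, 3-fold, 10 pts in duplicate. Lytic HiBiT/LgBiT luminescence readout. % degradation vs DMSO (0%) and 2 μM known BRM/BRG1 degrader (100%).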

T1 sequence (P51532 whole entry, the tested form may be a part): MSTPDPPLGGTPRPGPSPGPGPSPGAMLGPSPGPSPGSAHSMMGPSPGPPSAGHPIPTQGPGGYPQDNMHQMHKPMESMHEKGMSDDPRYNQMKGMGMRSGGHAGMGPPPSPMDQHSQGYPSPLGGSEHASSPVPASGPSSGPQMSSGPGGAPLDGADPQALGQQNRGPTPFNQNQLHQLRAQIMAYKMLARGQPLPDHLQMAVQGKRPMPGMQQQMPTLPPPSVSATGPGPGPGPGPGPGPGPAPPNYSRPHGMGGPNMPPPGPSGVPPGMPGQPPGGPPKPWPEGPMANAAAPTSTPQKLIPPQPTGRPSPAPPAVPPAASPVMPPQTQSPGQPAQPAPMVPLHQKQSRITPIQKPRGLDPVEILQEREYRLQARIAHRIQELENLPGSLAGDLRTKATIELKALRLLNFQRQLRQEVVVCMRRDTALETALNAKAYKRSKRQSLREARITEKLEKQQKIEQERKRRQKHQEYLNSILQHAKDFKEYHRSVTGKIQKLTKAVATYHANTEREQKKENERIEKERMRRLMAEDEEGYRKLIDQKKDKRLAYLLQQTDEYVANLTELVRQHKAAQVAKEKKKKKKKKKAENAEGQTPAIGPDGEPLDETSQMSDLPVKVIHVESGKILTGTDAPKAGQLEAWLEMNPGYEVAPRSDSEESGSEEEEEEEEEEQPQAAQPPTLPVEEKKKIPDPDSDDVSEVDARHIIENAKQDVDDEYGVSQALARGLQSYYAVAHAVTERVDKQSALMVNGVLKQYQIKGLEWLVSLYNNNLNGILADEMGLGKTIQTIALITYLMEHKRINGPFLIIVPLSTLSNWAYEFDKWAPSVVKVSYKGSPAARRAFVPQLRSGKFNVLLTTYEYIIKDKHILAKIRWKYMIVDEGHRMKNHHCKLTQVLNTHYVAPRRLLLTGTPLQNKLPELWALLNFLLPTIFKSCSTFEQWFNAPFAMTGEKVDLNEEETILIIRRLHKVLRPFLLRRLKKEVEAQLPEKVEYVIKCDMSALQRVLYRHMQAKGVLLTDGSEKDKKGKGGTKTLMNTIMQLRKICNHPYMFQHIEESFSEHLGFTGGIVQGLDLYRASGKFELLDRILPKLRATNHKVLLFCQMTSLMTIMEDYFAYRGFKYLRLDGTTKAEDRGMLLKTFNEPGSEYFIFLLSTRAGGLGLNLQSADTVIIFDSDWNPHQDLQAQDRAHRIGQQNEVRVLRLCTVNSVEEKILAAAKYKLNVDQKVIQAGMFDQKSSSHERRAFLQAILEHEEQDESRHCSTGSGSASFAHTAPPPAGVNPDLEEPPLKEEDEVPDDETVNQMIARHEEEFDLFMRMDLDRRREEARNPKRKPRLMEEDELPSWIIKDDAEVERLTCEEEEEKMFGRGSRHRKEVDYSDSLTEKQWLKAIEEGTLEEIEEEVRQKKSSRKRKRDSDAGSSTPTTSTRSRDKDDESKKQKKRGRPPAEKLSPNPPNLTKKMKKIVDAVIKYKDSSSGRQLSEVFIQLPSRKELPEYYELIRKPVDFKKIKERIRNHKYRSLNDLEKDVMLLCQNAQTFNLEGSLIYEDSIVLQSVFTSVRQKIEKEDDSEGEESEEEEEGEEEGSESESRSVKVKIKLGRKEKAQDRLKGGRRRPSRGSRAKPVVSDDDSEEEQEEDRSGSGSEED
T2 sequence (P51531 whole entry, the tested form may be a part): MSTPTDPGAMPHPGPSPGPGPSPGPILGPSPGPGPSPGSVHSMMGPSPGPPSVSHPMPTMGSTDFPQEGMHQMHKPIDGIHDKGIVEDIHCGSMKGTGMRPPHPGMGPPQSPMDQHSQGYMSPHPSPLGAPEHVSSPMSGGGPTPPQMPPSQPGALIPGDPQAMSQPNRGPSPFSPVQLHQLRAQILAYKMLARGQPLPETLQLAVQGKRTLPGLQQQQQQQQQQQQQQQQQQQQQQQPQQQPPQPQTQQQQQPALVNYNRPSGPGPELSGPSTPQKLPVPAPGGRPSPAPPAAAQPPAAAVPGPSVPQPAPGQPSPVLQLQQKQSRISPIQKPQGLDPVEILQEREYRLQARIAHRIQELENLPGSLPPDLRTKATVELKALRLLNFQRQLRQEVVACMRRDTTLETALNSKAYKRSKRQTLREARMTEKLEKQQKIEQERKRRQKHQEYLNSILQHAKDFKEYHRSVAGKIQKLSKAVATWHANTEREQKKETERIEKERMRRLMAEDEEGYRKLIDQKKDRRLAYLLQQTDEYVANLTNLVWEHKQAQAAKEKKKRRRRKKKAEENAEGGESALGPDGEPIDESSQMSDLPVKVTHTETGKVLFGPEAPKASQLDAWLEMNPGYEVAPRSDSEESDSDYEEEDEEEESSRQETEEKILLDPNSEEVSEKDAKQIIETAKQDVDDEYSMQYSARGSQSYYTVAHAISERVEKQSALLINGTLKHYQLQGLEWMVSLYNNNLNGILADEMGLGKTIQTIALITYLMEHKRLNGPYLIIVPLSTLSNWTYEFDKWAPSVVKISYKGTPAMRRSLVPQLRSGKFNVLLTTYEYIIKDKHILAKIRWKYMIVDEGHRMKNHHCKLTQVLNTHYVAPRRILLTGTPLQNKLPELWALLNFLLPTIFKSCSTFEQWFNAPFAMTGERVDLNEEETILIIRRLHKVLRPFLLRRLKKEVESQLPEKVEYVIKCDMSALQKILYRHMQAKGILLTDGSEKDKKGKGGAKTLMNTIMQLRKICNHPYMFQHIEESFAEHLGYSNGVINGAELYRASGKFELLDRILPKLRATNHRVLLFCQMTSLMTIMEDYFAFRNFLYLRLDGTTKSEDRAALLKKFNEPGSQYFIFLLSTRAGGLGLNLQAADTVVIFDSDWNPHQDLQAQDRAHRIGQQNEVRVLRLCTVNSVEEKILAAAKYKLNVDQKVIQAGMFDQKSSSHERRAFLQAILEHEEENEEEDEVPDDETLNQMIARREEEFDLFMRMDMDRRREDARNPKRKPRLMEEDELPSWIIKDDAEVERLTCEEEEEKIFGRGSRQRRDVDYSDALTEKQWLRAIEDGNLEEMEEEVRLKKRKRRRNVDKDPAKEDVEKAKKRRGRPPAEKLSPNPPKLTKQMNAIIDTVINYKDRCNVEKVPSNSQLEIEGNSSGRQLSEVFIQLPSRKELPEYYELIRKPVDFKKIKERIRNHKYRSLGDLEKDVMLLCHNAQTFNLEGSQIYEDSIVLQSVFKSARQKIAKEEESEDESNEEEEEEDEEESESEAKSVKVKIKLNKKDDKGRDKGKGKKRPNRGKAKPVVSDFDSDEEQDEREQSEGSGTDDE

Turning to `CS(=O)(=O)n1ccc(C(=O)NCC(=O)Nc2nc(-c3cccc(-c4ccnc(N5CCN(C(=O)CCOCCOCCNc6ccc7c(c6)C(=O)N(C6CCC(=O)NC6=O)C7=O)CC5)c4)c3)cs2)c1` (stereo not shown) [Compound 40, N-(2-((4-(3-(2-(4-(3-(2-(2-((2-(2,6-dioxopiperidin-3-yl)-1,3-dioxoisoindolin-5-yl)amino)ethoxy)ethoxy)propanoyl)piperazin-1-yl)pyridin-4-yl)phenyl)thiazol-2-yl)amino)-2-oxoethyl)-1-(methylsulfonyl)-1H-pyrrole-3-carboxamide], in test [1], the DC50 is under 100 nM and the Dmax is over 75%. For the same compound, in test [2], the DC50 was under 100 nM and the “BRM HiBit Degradation Maximum measured” value is “A (‘A’ = Maximum degradation >75%)”.
Take `Cc1c(C(=O)NCC(=O)Nc2nc(-c3cccc(-c4ccnc(N(C)CC(=O)NCCCCCCCCNC(=O)COc5cccc6c5C(=O)N(C5CCC(=O)NC5=O)C6=O)c4)c3)cs2)cn(S(C)(=O)=O)c1C` (stereo not shown) [Compound 41, N-[2-[[4-[3-[2-[[2-[8-[[2-[2-(2,6-dioxo-3-piperidyl)-1,3-dioxo-isoindolin-4-yl]oxyacetyl]amino]octylamino]-2-oxo-ethyl]-methyl-amino]-4-pyridyl]phenyl]thiazol-2-yl]amino]-2-oxo-ethyl]-4,5-dimethyl-1-methylsulfonyl-pyrrole-3-carboxamide]: in test [1], the DC50 was over 10000 nM and the Dmax is under 50%. In addition, in test [2], the DC50 was over 10000 nM and the “BRM HiBit Degradation Maximum measured” value is given as “C (‘C’ = Maximum degradation <50%)”.
In the case of `CS(=O)(=O)n1ccc(C(=O)NCC(=O)Nc2nc(-c3cccc(-c4cccc(CNC(=O)CCOCCOCCNc5cccc6c5C(=O)N(C5CCC(=O)NC5=O)C6=O)c4)c3)cs2)c1` (stereo not shown) [Compound 42, N-(2-((4-(3′-((3-(2-(2-((2-(2,6-dioxopiperidin-3-yl)-1,3-dioxoisoindolin-4-yl)amino)ethoxy)ethoxy)propanamido)-methyl)-[1,1′-biphenyl]-3-yl)thiazol-2-yl)amino)-2-oxoethyl)-1-(methylsulfonyl)-1H-pyrrole-3-carboxamide], in test [1], the DC50 lay in the range of 100 to 1000 nM and the Dmax fell in the range of 50 to 75%. Besides, in test [2], the DC50 was over 10000 nM and the “BRM HiBit Degradation Maximum measured” value was “C (‘C’ = Maximum degradation <50%)”.
Turning to `CS(=O)(=O)n1ccc(C(=O)NCC(=O)Nc2nc(-c3cccc(-c4cccc(CNC(=O)CCCCCCOc5cccc6c5C(=O)N(C5CCC(=O)NC5=O)C6=O)c4)c3)cs2)c1` (stereo not shown) [Compound 43, N-(2-((4-(3′-((7-((2-(2,6-dioxopiperidin-3-yl)-1,3-dioxoisoindolin-4-yl)oxy)heptanamido)methyl)-[1,1′-biphenyl]-3-yl)thiazol-2-yl)amino)-2-oxoethyl)-1-(methylsulfonyl)-1H-pyrrole-3-carboxamide], in test [1], the DC50 lay within 100 to 1000 nM and the Dmax lay in the range of 50 to 75%. In addition, in test [2], the DC50 is over 10000 nM and the “BRM HiBit Degradation Maximum measured” value is “C (‘C’ = Maximum degradation <50%)”.
For `Cc1ncsc1-c1ccc(CNC(=O)[C@@H]2C[C@@H](O)CN2C(=O)[C@@H](NC(=O)COCCOCC(=O)NCc2cccc(-c3cccc(-c4csc(NC(=O)CNC(=O)c5ccn(S(C)(=O)=O)c5)n4)c3)c2)C(C)(C)C)cc1` [Compound 44, N-(2-((4-(3′-((S)-12-((2S,4R)-4-hydroxy-2-((4-(4-methylthiazol-5-yl)benzyl)carbamoyl)pyrrolidine-1-carbonyl)-13,13-dimethyl-3,10-dioxo-5,8-dioxa-2,11-diazatetradecyl)-[1,1′-biphenyl]-3-yl)thiazol-2-yl)amino)-2-oxoethyl)-1-(methylsulfonyl)-1H-pyrrole-3-carboxamide], in test [1], the DC50 fell in the range of 1000 to 10000 nM and the Dmax is over 75%. For the same compound, in test [2], the DC50 lay in the range of 1000 to 10000 nM; the “BRM HiBit Degradation Maximum measured” value is “B (‘B’ = Maximum degradation ≥50% and ≤75%)”.
As to `CS(=O)(=O)n1ccc(C(=O)NCC(=O)Nc2nc(-c3cccc(-c4cccc(CNC(=O)CCOCCOCCNc5ccc6c(c5)C(=O)N(C5CCC(=O)NC5=O)C6=O)c4)c3)cs2)c1` (stereo not shown) [Compound 45, N-(2-((4-(3′-((3-(2-(2-((2-(2,6-dioxopiperidin-3-yl)-1,3-dioxoisoindolin-5-yl)amino)ethoxy)ethoxy)propanamido)-methyl)-[1,1′-biphenyl]-3-yl)thiazol-2-yl)amino)-2-oxoethyl)-1-(methylsulfonyl)-1H-pyrrole-3-carboxamide], in test [1], the DC50 is over 10000 nM and the Dmax is under 50%. Besides, in test [2], the DC50 is over 10000 nM and the “BRM HiBit Degradation Maximum measured” value was “C (‘C’ = Maximum degradation <50%)”.
For the compound `Cc1ncsc1-c1ccc(CNC(=O)[C@@H]2C[C@@H](O)CN2C(=O)[C@@H](NC(=O)CCCCCCCCCNC(=O)CN(C)c2cc(-c3cccc(-c4csc(NC(=O)CNC(=O)c5ccn(S(C)(=O)=O)c5)n4)c3)ccn2)C(C)(C)C)cc1` [Compound 47], in test [1], the DC50 is under 100 nM and the Dmax was in the range of 50 to 75%. In test [2], the DC50 was under 100 nM; the “BRM HiBit Degradation Maximum measured” value is “B (‘B’ = Maximum degradation ≥50% and ≤75%)”.
For the compound `Cc1ncsc1-c1ccc(CNC(=O)[C@@H]2C[C@@H](O)CN2C(=O)[C@@H](NC(=O)CCCCC(=O)NCc2cccc(-c3cccc(-c4csc(NC(=O)CNC(=O)c5ccn(S(C)(=O)=O)c5)n4)c3)c2)C(C)(C)C)cc1` [Compound 48, N1-((S)-1-((2S,4R)-4-hydroxy-2-((4-(4-methylthiazol-5-yl)benzyl)carbamoyl)pyrrolidin-1-yl)-3,3-dimethyl-1-oxobutan-2-yl)-N6-((3′-(2-(2-(1-(methylsulfonyl)-1H-pyrrole-3-carboxamido)acetamido)thiazol-4-yl)-[1,1′-biphenyl]-3-yl)methyl)adipamide], in test [1], the DC50 was 1000 to 10000 nM and the Dmax lay in the range of 50 to 75%. Besides, in test [2], the DC50 was over 10000 nM and the “BRM HiBit Degradation Maximum measured” value is listed as “C (‘C’ = Maximum degradation <50%)”.
For `Cc1ncsc1-c1ccc(CNC(=O)[C@@H]2C[C@@H](O)CN2C(=O)[C@@H](NC(=O)CCCCCCCC(=O)NCc2cccc(-c3cccc(-c4csc(NC(=O)CNC(=O)c5ccn(S(C)(=O)=O)c5)n4)c3)c2)C(C)(C)C)cc1` [Compound 49, N1-((S)-1-((2S,4R)-4-hydroxy-2-((4-(4-methylthiazol-5-yl)benzyl)carbamoyl)pyrrolidin-1-yl)-3,3-dimethyl-1-oxobutan-2-yl)-N9-((3′-(2-(2-(1-(methylsulfonyl)-1H-pyrrole-3-carboxamido)acetamido)thiazol-4-yl)-[1,1′-biphenyl]-3-yl)methyl)nonanediamide], in test [1], the DC50 was under 100 nM and the Dmax was over 75%. In addition, in test [2], the DC50 is under 100 nM and the “BRM HiBit Degradation Maximum measured” value is listed as “A (‘A’ = Maximum degradation >75%)”.
Take `Cc1ncsc1-c1ccc(CNC(=O)[C@@H]2C[C@@H](O)CN2C(=O)[C@@H](NC(=O)CCCCCCC(=O)NCc2cccc(-c3cccc(-c4csc(NC(=O)CNC(=O)c5ccn(S(C)(=O)=O)c5)n4)c3)c2)C(C)(C)C)cc1` [Compound 50, N1-((S)-1-((2S,4R)-4-hydroxy-2-((4-(4-methylthiazol-5-yl)benzyl)carbamoyl)pyrrolidin-1-yl)-3,3-dimethyl-1-oxobutan-2-yl)-N8-((3′-(2-(2-(1-(methylsulfonyl)-1H-pyrrole-3-carboxamido)acetamido)thiazol-4-yl)-[1,1′-biphenyl]-3-yl)methyl)octanediamide]: in test [1], the DC50 is 100 to 1000 nM and the Dmax is over 75%. Moreover, in test [2], the DC50 was in the range of 100 to 1000 nM and the “BRM HiBit Degradation Maximum measured” value is recorded as “A (‘A’ = Maximum degradation >75%)”.
For `CS(=O)(=O)n1ccc(C(=O)NCC(=O)Nc2nc(-c3cccc(-c4cccc(CNC(=O)CCCCCCCCCCNc5cccc6c5C(=O)N(C5CCC(=O)NC5=O)C6=O)c4)c3)cs2)c1` (stereo not shown) [Compound 51, N-[2-[[4-[3-[3-[[11-[[2-(2,6-dioxo-3-piperidyl)-1,3-dioxo-isoindolin-4-yl]amino]undecanoylamino]methyl]-phenyl]phenyl]thiazol-2-yl]amino]-2-oxo-ethyl]-1-methylsulfonyl-pyrrole-3-carboxamide], in test [1], the DC50 was 100 to 1000 nM and the Dmax is 50 to 75%. Also, in test [2], the DC50 was over 10000 nM and the “BRM HiBit Degradation Maximum measured” value is “C (‘C’ = Maximum degradation <50%)”.
Regarding `CS(=O)(=O)n1ccc(C(=O)NCC(=O)Nc2nc(-c3cccc(-c4cccc(CNC(=O)CCCCCCCCCCNc5ccc6c(c5)C(=O)N(C5CCC(=O)NC5=O)C6=O)c4)c3)cs2)c1` (stereo not shown) [Compound 52], in test [1], the DC50 lay within 100 to 1000 nM and the Dmax was in the range of 50 to 75%. Besides, in test [2], the DC50 is over 10000 nM and the “BRM HiBit Degradation Maximum measured” value is reported as “C (‘C’ = Maximum degradation <50%)”.
Turning to `CS(=O)(=O)n1ccc(C(=O)NCC(=O)Nc2nc(-c3cccc(-c4ccnc(C5(C(=O)NCCCCCCNc6ccc7c(c6)CN(C6CCC(=O)NC6=O)C7=O)CC5)c4)c3)cs2)c1` (stereo not shown) [Compound 53, N-(6-[[2-(2,6-dioxopiperidin-3-yl)-1-oxo-3H-isoindol-5-yl]amino]hexyl)-1-[4-[3-(2-[2-[(1-methanesulfonylpyrrol-3-yl)formamido]acetamido]-1,3-thiazol-4-yl)phenyl]pyridin-2-yl]cyclopropane-1-carboxamide], in test [1], the DC50 was under 100 nM and the Dmax was over 75%. Further, in test [2], the DC50 is under 100 nM and the “BRM HiBit Degradation Maximum measured” value is given as “A (‘A’ = Maximum degradation >75%)”.
